These molecules were tested against c-Met kinase (h-Met; histidine-tagged c-Met catalytic domain fusion protein) (Homo sapiens (Human), UniProt P08581) (assay: In Vitro c-Met Kinase Enzyme Assays). Settings: phosphorylation of poly Glu-Tyr, 5 μM ATP, 25 minutes at 30° C.
Assay type: biochemical
Experimental: Compounds were screened in vitro for their ability to inhibit c-Met kinase activity. […] Briefly, histidine-tagged c-Met catalytic domain fusion protein (Invitrogen, #PV3143) was used for the assay. […] The reaction lasted for 25 minutes at 30° C. After the reaction was completed, the contents of the plates was discarded. Plates were then washed with TBS-T (250 μL/well, 5×) and then blocked with TBS-T containing 1% BSA for 2 hours. The contents of the plates was discarded, and 100 μL (per well) of peroxidase-labeled anti-phospho-tyrosine antibody (Sigma, #A5964) diluted (1:60,000) in 1% BSA containing TBS-T were then added and incubated for 1 hour. Plates were washed with TBS-T ([…], 5×) and followed by the color reaction using 100 μL (1:1 mixture) of H2O2 and tetramethylbenzidine (R&D Systems, #DY999). The reaction was stopped in minutes with 100 μL of 2 N H2SO4. The optical density was measured immediately using a microplate reader at 450 nm with wavelength correction at 540 nm. IC50 values were calculated with the GraphPad Prism software. The linear range (i.e., the time period over which the rate remained equivalent to the initial rate) was determined for the kinase and IC50 determinations were performed within this range.

Sequence of c-Met kinase (h-Met; histidine-tagged c-Met catalytic domain fusion protein) (P08581 1078-1345): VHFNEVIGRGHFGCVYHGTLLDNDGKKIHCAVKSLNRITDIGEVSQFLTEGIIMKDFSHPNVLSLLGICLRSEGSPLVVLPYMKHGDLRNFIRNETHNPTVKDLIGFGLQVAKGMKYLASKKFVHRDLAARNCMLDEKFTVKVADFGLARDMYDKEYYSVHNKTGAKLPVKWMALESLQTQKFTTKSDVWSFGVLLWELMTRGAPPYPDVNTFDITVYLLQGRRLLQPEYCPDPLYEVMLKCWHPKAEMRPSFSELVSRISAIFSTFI

SMILES	IC50 [nM]
O[C@@H]1CCN(Cc2ccc(-c3cnc4ncc(C5(c6ccc7ncccc7c6)CC5)n4c3)cc2F)C1 [Example 68, (3R)-1-{2-Fluoro-4-[3-(1-quinolin-6-ylcyclopropyl)imidazo[1,2-a]pyrimidin-6-yl]benzyl}pyrrolidin-3-ol]	< 500
Fc1cc(-c2cnc3ncc(C4(c5ccc6ncccc6c5)CC4)n3c2)ccc1Cn1cccn1 [Example 69, 6-(1-{6-[3-Fluoro-4-(1H-pyrazol-1-ylmethyl)phenyl]imidazo[1,2-a]pyrimidin-3-yl}cyclopropyl)quinoline]	< 500
O=C1OCCN1Cc1ccc(-c2cnc3ncc(C4(c5ccc6ncccc6c5)CC4)n3c2)cc1F [Example 70, 3-{2-Fluoro-4-[3-(1-quinolin-6-ylcyclopropyl)imidazo[1,2-a]pyrimidin-6-yl]benzyl}-1,3-oxazolidin-2-one]	< 500
CNC(=O)c1ccc(-c2cnc3ncc(Cc4ccc5nccnc5c4)n3n2)cc1F [Example 71, 2-Fluoro-N-methyl-4-[7-(quinoxalin-6-ylmethyl)imidazo[1,2-b][1,2,4]triazin-2-yl]benzamide]	< 500
Cc1nc(-c2cnc3ncc(C4(c5ccc6ncccc6c5)CC4)n3c2)cs1 [Example 73, 6-{1-[6-(2-Methyl-1,3-thiazol-4-yl)imidazo[1,2-a]pyrimidin-3-yl]cyclopropyl}quinoline]	< 500
c1cnc2ccc(C3(c4cnc5ncc(-c6cscn6)cn45)CC3)cc2c1 [Example 74, 6-{1-[6-(1,3-Thiazol-4-yl)imidazo[1,2-a]pyrimidin-3-yl]cyclopropyl}quinoline]	< 500
CNC(=O)c1ccc(-c2cnc3ncc(C4(c5ccc6ncccc6c5)CC4)n3c2)c(F)c1 [Example 75, 3-Fluoro-N-methyl-4-[3-(1-quinolin-6-ylcyclopropyl)imidazo[1,2-a]pyrimidin-6-yl]benzamide]	< 500
O=C(c1ccc(-c2cnc3ncc(C4(c5ccc6ncccc6c5)CC4)n3c2)c(F)c1)N1CC[C@H](O)C1 [Example 76, (3S)-1-{3-Fluoro-4-[3-(1-quinolin-6-ylcyclopropyl)imidazo[1,2-a]pyrimidin-6-yl]benzoyl}pyrrolidin-3-ol]	< 500
CNC(=O)c1cc(F)c(-c2cnc3ncc(C4(c5ccc6ncccc6c5)CC4)n3c2)cc1F [Example 77, 2,5-Difluoro-N-methyl-4-[3-(1-quinolin-6-ylcyclopropyl)imidazo[1,2-a]pyrimidin-6-yl]benzamide]	< 500
NC(=O)c1cc(F)c(-c2cnc3ncc(C4(c5ccc6ncccc6c5)CC4)n3c2)cc1F [Example 78, 2,5-Difluoro-4-[3-(1-quinolin-6-ylcyclopropyl)imidazo[1,2-a]pyrimidin-6-yl]benzamide]	< 500
O=C(NC1CC1)c1cc(F)c(-c2cnc3ncc(C4(c5ccc6ncccc6c5)CC4)n3c2)cc1F [Example 79, N-Cyclopropyl-2,5-difluoro-4-[3-(1-quinolin-6-ylcyclopropyl)imidazo[1,2-a]pyrimidin-6-yl]benzamide]	< 500
O=C1CCCN1c1ccc(-c2cnc3ncc(C4(c5ccc6ncccc6c5)CC4)n3c2)cc1F [Example 81, 1-{2-Fluoro-4-[3-(1-quinolin-6-ylcyclopropyl)imidazo[1,2-a]pyrimidin-6-yl]phenyl}pyrrolidin-2-one]	< 2000
O=C1OCCN1c1ccc(-c2cnc3ncc(C4(c5ccc6ncccc6c5)CC4)n3c2)cc1F [Example 82, 3-{2-Fluoro-4-[3-(1-quinolin-6-ylcyclopropyl)imidazo[1,2-a]pyrimidin-6-yl]phenyl}-1,3-oxazolidin-2-one]	< 500
CCOC(=O)N1CCC(n2cc(-c3cnc4ncc(C5(c6ccc7ncccc7c6)CC5)n4c3)cn2)CC1 [Example 83, Ethyl 4-{4-[3-(1-quinolin-6-ylcyclopropyl)imidazo[1,2-a]pyrimidin-6-yl]-1H-pyrazol-1-yl}piperidine-1-carboxylate]	< 500
CN(C)C(=O)Cn1cc(-c2ccc(-c3cnc4ncc(C5(c6ccc7ncccc7c6)CC5)n4c3)cc2F)cn1 [Example 84, 2-(4-{2-Fluoro-4-[3-(1-quinolin-6-ylcyclopropyl)imidazo[1,2-a]pyrimidin-6-yl]phenyl}-1H-pyrazol-1-yl)-N,N-dimethylacetamide]	< 500
CNC(=O)c1ccc(-c2ccc(-c3cnc4ncc(C5(c6ccc7ncccc7c6)CC5)n4c3)cc2F)cn1 [Example 85, 5-{2-Fluoro-4-[3-(1-quinolin-6-ylcyclopropyl)imidazo[1,2-a]pyrimidin-6-yl]phenyl}-N-methylpyridine-2-carboxamide]	< 500
CN(C)C(=O)c1ccc(-c2ccc(-c3cnc4ncc(C5(c6ccc7ncccc7c6)CC5)n4c3)cc2F)cn1 [Example 86, 5-{2-Fluoro-4-[3-(1-quinolin-6-ylcyclopropyl)imidazo[1,2-a]pyrimidin-6-yl]phenyl}-N,N-dimethylpyridine-2-carboxamide]	< 500

Next, values leading:

IC50 [nM]	SMILES
< 500	C[C@H](NC(=O)c1ccc(-c2cnc3ncc(C4(c5ccc6ncccc6c5)CC4)n3c2)cn1)C(=O)N(C)C [Example 61, N-[(1S)-2-(Dimethylamino)-1-methyl-2-oxoethyl]-5-[3-(1-quinolin-6-ylcyclopropyl)imidazo[1,2-a]pyrimidin-6-yl]pyridine-2-carboxamide]
< 500	C[C@@H](NC(=O)c1ccc(-c2cnc3ncc(C4(c5ccc6ncccc6c5)CC4)n3c2)cn1)C(=O)N(C)C [Example 62, N-[(1R)-2-(Dimethylamino)-1-methyl-2-oxoethyl]-5-[3-(1-quinolin-6-ylcyclopropyl)imidazo[1,2-a]pyrimidin-6-yl]pyridine-2-carboxamide]
< 500	O=C(COc1ccc(-c2cnc3ncc(C4(c5ccc6ncccc6c5)CC4)n3c2)cc1)N1CCCC1 [Example 63, 6-(1-{6-[4-(2-Oxo-2-pyrrolidin-1-ylethoxy)phenyl]imidazo[1,2-a]pyrimidin-3-yl}cyclopropyl)quinoline]
< 500	N#CC1(c2ccc(-c3cnc4ncc(C5(c6ccc7ncccc7c6)CC5)n4c3)cc2)CC1 [Example 64, 1-{4-[3-(1-Quinolin-6-ylcyclopropyl)imidazo[1,2-a]pyrimidin-6-yl]phenyl}cyclopropanecarbonitrile]
< 500	CN(C)S(=O)(=O)c1ccc(-c2cnc3ncc(C4(c5ccc6ncccc6c5)CC4)n3c2)cc1 [Example 65, N,N-Dimethyl-4-[3-(1-quinolin-6-ylcyclopropyl)imidazo[1,2-a]pyrimidin-6-yl]benzenesulfonamide]
< 500	COC(=O)NCc1ccc(-c2cnc3ncc(C4(c5ccc6ncccc6c5)CC4)n3c2)cc1F [Example 66, Methyl 2-fluoro-4-[3-(1-quinolin-6-ylcyclopropyl)imidazo[1,2-a]pyrimidin-6-yl]benzylcarbamate]
< 500	CN(C)C(=O)NCc1ccc(-c2cnc3ncc(C4(c5ccc6ncccc6c5)CC4)n3c2)cc1F [Example 67, N′-2-Fluoro-4-[3-(1-quinolin-6-ylcyclopropyl)imidazo[1,2-a]pyrimidin-6-yl]benzyl-N,N-dimethylurea]
< 500	O=C(N[C@H]1CC[C@H](O)CC1)c1cc(F)c(-c2cnc3ncc(C4(c5ccc6ncccc6c5)CC4)n3c2)cc1F [Example 80, 2,5-Difluoro-N-(trans-4-hydroxycyclohexyl)-4-[3-(1-quinolin-6-ylcyclopropyl)imidazo[1,2-a]pyrimidin-6-yl]benzamide]

From US9944645B2, “Imidazotriazines and imidazopyrimidines as kinase inhibitors” (Incyte Holdings Corporation, priority 2006, dated 2018)
